The target in test [1] is T1, mouse PAC receptor-expressing CHO cell (PAC1/CHO cell) (Mus musculus, UniProt P70205).
T1 construct: expressed in transfected cells; host or cells: CHO cells
T1 sequence (P70205 21-496): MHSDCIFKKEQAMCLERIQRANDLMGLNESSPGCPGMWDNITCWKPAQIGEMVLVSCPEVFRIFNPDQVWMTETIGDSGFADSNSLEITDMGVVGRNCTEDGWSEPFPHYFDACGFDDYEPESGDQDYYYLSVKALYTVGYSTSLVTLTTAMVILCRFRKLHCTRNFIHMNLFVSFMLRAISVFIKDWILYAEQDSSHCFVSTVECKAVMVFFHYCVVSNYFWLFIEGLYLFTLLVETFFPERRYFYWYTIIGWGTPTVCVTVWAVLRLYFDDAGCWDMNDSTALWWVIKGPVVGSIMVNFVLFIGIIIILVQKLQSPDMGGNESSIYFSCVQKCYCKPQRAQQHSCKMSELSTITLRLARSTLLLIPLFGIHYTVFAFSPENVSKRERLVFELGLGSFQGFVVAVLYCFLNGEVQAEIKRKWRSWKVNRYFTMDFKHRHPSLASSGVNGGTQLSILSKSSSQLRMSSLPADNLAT
Nature of the test: CREB phosphorylation by PACAP stimulus, Western blot, PAC1/CHO cell. In kind it is cell-based. The protocol: The effect of each compound on the phosphorylation of CREB (cAMP-responsive element-binding protein) produced by a PACAP stimulus was examined by Western blot analysis using an anti-phosphorylated CREB (pCREB) antibody with a mouse PAC receptor-expressing CHO cell (PAC1/CHO cell) and a mouse VPAC1 receptor-expressing CHO cell (VPAC1/CHO cell).
Specifically, treatment with a compound (PA-8, PA-9, compounds 2j, 20 and 3d) at 10 μM to 10 nM or a solvent therefor (VEH: 0.1% DMSO-containing phosphate buffer solution) was performed for 30 minutes, 1 nM PACAP was then added, and protein was recovered within 30 minutes after a PACAP stimulus.

The subject of test [2] is mechanical allodynia induced by PACAP intrathecal administration. The test is described as follows: Mechanical allodynia induced by PACAP intrathecal administration (von Frey test). In kind it is in vivo, mouse. As to conditions: 100 pmol, simultaneous i.t.; FIG. 5C. The method, then:
When single i.t. administration of PACAP (100 pmol/5 L) to mouse was performed, mechanical stimulus sensitive phenomenon (mechanical allodynia) occurred over a long period of time (for at least three months after the administration) (Non Patent Literature 1). […] The mechanical sensitive phenomenon induced by PACAP was not suppressed in an example in which a solvent (VEH: 0.2% DMSO-containing artificial cerebrospinal fluid) was used instead of the compounds.
(§1) Male ddY mice (6 to 12 weeks old) were used, and the threshold to a mechanical stimulus was evaluated by the vonFrey test. Specifically, the 50% withdrawal reflex threshold (Threshold) was calculated in accordance with the method of Chaplan et al. (Chaplan et al., J. Neurosci. Meth. 53, 55-63, 1994). Each compound was dissolved in 99.7% DMSO, and then the resulting solution was diluted with an artificial cerebrospinal fluid for preparation (final concentration of DMSO was 0.2%).

The subject of test [3] is mechanical allodynia induced by spinal nerve injury. Nature of the test: Spinal nerve ligation (SNL) model, i.t. administration on 14th day, mechanical allodynia. The class given is in vivo, mouse. The method, then: as §1
Spinal nerve ligation (SNL) models in which the fourth lumbar cord spinal nerves of male ddY (6 to 12 weeks old) were ligated with silk thread were used. The i.t. administration of a solvent (VEH: 10% DMSO-containing saline), PA-8, the compound 2j or the compound 2o (FIG. 9A), or PA-9 or the compound 3d (FIG. 9B) was performed on the 14th day after the operation. The method of causing a mechanical stimulus is the same as that of Example 5, and data were acquired for 24 hours after i.t. administration over time.

Regarding `O=C(NCCc1c[nH]cn1)C1CC(=O)N(c2n[nH]c3c(Cl)cccc23)C1` (centres unmarked) [compound 3d, N-[2-(1H-imidazol-4-yl)ethyl]-1-(7-chloro-1H-indazol-3-yl)-5-oxo-3-pyrrolidinecarboxamide], in test [1] (PAC1/CHO cell, compound 10 μM to 10 nM, 30 minutes before 1 nM PACAP), the “suppression of CREB phosphorylation by PACAP (1 nM)” value is “suppressed CREB phosphorylation by PACAP (1 nM) depending on the concentration”. For the same molecule, the “effect of suppressing CREB phosphorylation compared with basic compound” value in test [1] (at 1 nM, 2o versus PA-8, 3d versus PA-9, FIG. 3) is reported as “significantly stronger effect of suppressing CREB phosphorylation”. Besides, the “suppression of long-term mechanical allodynia induced by PACAP” value in test [2] is recorded as “strongly suppressed”. In addition, the “mechanical threshold 24 hours after the administration” value in test [3] (100 pmol i.t.) was “maintained the mechanical threshold highly significantly”. Besides, in test [3] (100 pmol i.t. on 14th day after operation), the anti-mechanical allodynia effect entry is “anti-mechanical allodynia effect equivalent to PA-8 and the compound 2j”.

These data come from US11365194B2, “Analgesic drug using PAC1 receptor antagonistic drug” (KAGOSHIMA UNIVERSITY, priority 2017, dated 2022).
